Test results from patent US12336981B2, “Compounds and compositions for the inhibition of NAMPT” (Valo Health, Inc., priority 2010, dated 2025).
Like-named read-outs stand apart in the source and are kept apart here.

Legend:
NAMPT = molecular target: T1, NAMPT (Homo sapiens, UniProt P43490); assay: Biochemical inhibition assay: NAMPT enzymatic reaction, NMN quantified by mass spectrometry; conditions: read-out: Biochem IC50
T1 construct: His tag; host or cells: E. coli
How it was run: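 Inhibition of E. coli-expressed His-tagged human NAMPT, measured as NMN formation by mass spectrometry after a 30 min room-temperature reaction containing 1 μM NAM, 100 μM PRPP and 2.5 mM ATP.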

A2780 cells = assay: In-vitro cell proliferation assay (SRB), A2780 cells; type: cell-based; conditions: Homo sapiens, A2780, 72 h, A2780 cells, 72 hours, read-out: A2780 IC50
How it was run: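 Proliferation is assessed by sulforhodamine B staining following a 72-hour incubation with compound dilutions containing 0.1% DMSO.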

T1 sequence (P43490 whole entry): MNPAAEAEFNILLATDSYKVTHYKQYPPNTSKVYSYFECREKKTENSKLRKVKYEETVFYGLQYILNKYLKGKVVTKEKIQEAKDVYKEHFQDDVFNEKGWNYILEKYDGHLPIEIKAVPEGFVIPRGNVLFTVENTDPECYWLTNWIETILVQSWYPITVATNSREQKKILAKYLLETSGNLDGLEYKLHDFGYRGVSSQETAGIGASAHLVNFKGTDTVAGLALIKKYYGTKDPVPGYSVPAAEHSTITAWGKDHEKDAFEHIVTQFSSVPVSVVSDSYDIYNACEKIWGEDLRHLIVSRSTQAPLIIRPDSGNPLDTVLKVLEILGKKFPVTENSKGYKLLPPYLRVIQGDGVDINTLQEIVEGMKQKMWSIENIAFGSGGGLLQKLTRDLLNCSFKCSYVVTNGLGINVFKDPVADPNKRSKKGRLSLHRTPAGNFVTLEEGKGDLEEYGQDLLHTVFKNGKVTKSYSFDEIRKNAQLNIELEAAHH

CS(=O)(=O)c1ccc(S(=O)(=O)c2ccc(CNC(=O)c3cnc4[nH]ncc4c3)cc2)cc1 [N-({4-[(4-methanesulfonylbenzene)sulfonyl]phenyl}methyl)-1H-pyrazolo[3,4-b]pyridine-5-carboxamide] gave an IC50 (NAMPT; NAMPT enzymatic reaction) of 29.3 nM and an IC50 (A2780 cells; SRB) of 23.8 nM.

Compound O=C(NCc1ccc(S(=O)(=O)c2ccccc2)cc1)c1cc(-c2cccnc2)[nH]n1 [N-{[4-(benzenesulfonyl)phenyl]methyl}-5-(pyridin-3-yl)-1H-pyrazole-3-carboxamide] has an IC50 (NAMPT; NAMPT enzymatic reaction) of 23 nM and an IC50 (A2780 cells; SRB assay) of 11800 nM.

COc1cc(S(=O)(=O)c2ccc(CNC(=O)c3cc4cnccc4[nH]3)cc2)ccc1F showed an IC50 (NAMPT; NAMPT enzymatic reaction) of 27.8 nM and an IC50 (A2780 cells; SRB) of 5.4 nM.

In the case of O=C(NCc1ccc(S(=O)(=O)N2CCCCC2)cc1)c1cc2cnccc2s1 [N-{[4-(piperidine-1-sulfonyl)phenyl]methyl}thieno[3,2-c]pyridine-2-carboxamide], the IC50 (NAMPT; NAMPT enzymatic reaction) is reported as 886 nM and the IC50 (A2780 cells; SRB assay) is reported as 10000 nM.

CCCCOc1ccc(S(=O)(=O)c2ccc(CNC(=O)c3cc4cnccc4[nH]3)cc2)cc1 [N-({4-[(4-butoxybenzene)sulfonyl]phenyl}methyl)-1H-pyrrolo[3,2-c]pyridine-2-carboxamide] was tested, and the IC50 (NAMPT; NAMPT enzymatic reaction) was 8.4 nM and the IC50 (A2780 cells; SRB) was 17.1 nM.

With O=C(NCc1ccc(S(=O)(=O)c2cc(Cl)cc(Cl)c2)cc1)c1cc2ccncc2s1 [N-({4-[(3,5-dichlorobenzene)sulfonyl]phenyl}methyl)thieno[2,3-c]pyridine-2-carboxamide] the IC50 (NAMPT; NAMPT enzymatic reaction) was 6 nM and the IC50 (A2780 cells; SRB assay) was 0.7 nM.

O=C(NCc1ccc(S(=O)(=O)Nc2ccc(Cl)cc2OC(F)(F)F)cc1)c1cc2cnccc2[nH]1 [N-[(4-{[4-chloro-2-(trifluoromethoxy)phenyl]sulfamoyl}phenyl)methyl]-1H-pyrrolo[3,2-c]pyridine-2-carboxamide] was tested, and the IC50 (NAMPT; NAMPT enzymatic reaction) was 2 nM and the IC50 (A2780 cells; SRB assay) was 2 nM.

CN(C)c1ncc(S(=O)(=O)c2ccc(CNC(=O)c3cc4ccncc4s3)cc2)cn1 [N-({4-[2-(dimethylamino)pyrimidine-5-sulfonyl]phenyl}methyl)thieno[2,3-c]pyridine-2-carboxamide] showed an IC50 (NAMPT; NAMPT enzymatic assay) of 8 nM and an IC50 (A2780 cells; SRB) of 1.7 nM.

With COc1cc(F)ccc1NS(=O)(=O)c1ccc(CNC(=O)c2cc3cnccc3[nH]2)cc1 [N-({4-[(4-fluoro-2-methoxyphenyl)sulfamoyl]phenyl}methyl)-1H-pyrrolo[3,2-c]pyridine-2-carboxamide] the IC50 (NAMPT; NAMPT enzymatic reaction) was 3140 nM and the IC50 (A2780 cells; SRB assay) was > 30000 nM.

With O=C(NCc1ccc(S(=O)(=O)c2cccc(F)c2)cc1)c1cc2ccncc2s1 [N-({4-[(3-fluorobenzene)sulfonyl]phenyl}methyl)thieno[2,3-c]pyridine-2-carboxamide] the IC50 (NAMPT; NAMPT enzymatic reaction) was 3 nM and the IC50 (A2780 cells; SRB assay) was 3.3 nM.

For O=C(NCc1ccc(S(=O)(=O)c2ccc(OCC(F)(F)F)c(F)c2)cc1)c1cnc2[nH]ncc2c1 [N-[(4-{[3-fluoro-4-(2,2,2-trifluoroethoxy)benzene]sulfonyl}phenyl)methyl]-1H-pyrazolo[3,4-b]pyridine-5-carboxamide], the IC50 (NAMPT; NAMPT enzymatic assay) was 10.3 nM and the IC50 (A2780 cells; SRB) was 22.3 nM.

With CCCOc1cccc(S(=O)(=O)c2ccc(CNC(=O)c3cc4ccncc4o3)cc2)c1 the IC50 (NAMPT; NAMPT enzymatic reaction) was 10.1 nM and the IC50 (A2780 cells; SRB) was 25.2 nM.

For O=C(NCc1ccc(S(=O)(=O)c2ccccc2)cc1)c1cnc2[nH]ccc2c1 [N-{[4-(benzenesulfonyl)phenyl]methyl}-1H-pyrrolo[2,3-b]pyridine-5-carboxamide], the IC50 (NAMPT; NAMPT enzymatic reaction) was 1910 nM and the IC50 (A2780 cells; SRB assay) was > 30000 nM.

Compound CCCCOc1ccc(Cl)cc1S(=O)(=O)c1ccc(CNC(=O)c2cc3cnccc3[nH]2)cc1 has an IC50 (NAMPT; NAMPT enzymatic reaction) of 15.6 nM and an IC50 (A2780 cells; SRB) of 8.3 nM.

CN(C)S(=O)(=O)c1cccc(S(=O)(=O)c2ccc(CNC(=O)c3cnc4nccn4c3)cc2)c1 gave an IC50 (NAMPT; NAMPT enzymatic assay) of 2 nM and an IC50 (A2780 cells; SRB) of 11.2 nM.

For CN(C)c1ncc(S(=O)(=O)c2ccc(CNC(=O)c3cnc4[nH]ncc4c3)cc2)cn1 [N-({4-[2-(dimethylamino)pyrimidine-5-sulfonyl]phenyl}methyl)-1H-pyrazolo[3,4-b]pyridine-5-carboxamide], the IC50 (NAMPT; NAMPT enzymatic assay) was 7.9 nM and the IC50 (A2780 cells; SRB) was 5.9 nM.

CCNC(=O)c1ccc(S(=O)(=O)c2ccc(CNC(=O)c3cc4cnccc4[nH]3)cc2)cc1 showed an IC50 (NAMPT; NAMPT enzymatic assay) of 14.5 nM and an IC50 (A2780 cells; SRB) of 14.1 nM.

Cc1cc(F)cc(S(=O)(=O)c2ccc(CNC(=O)c3cc4cnccc4[nH]3)cc2)c1 showed an IC50 (NAMPT; NAMPT enzymatic reaction) of 8.3 nM and an IC50 (A2780 cells; SRB) of 1.8 nM.

With CC(C)n1cc(S(=O)(=O)c2ccc(CNC(=O)c3ccc4nccn4c3)cc2)cn1 [N-({4-[1-(propan-2-yl)-1H-pyrazole-4-sulfonyl]phenyl}methyl)imidazo[1,2-a]pyridine-6-carboxamide] the IC50 (NAMPT; NAMPT enzymatic assay) was 8 nM and the IC50 (A2780 cells; SRB) was 2.7 nM.

CC(=O)c1cccc(S(=O)(=O)c2ccc(CNC(=O)c3cc4ccncc4o3)cc2)c1 [N-({4-[(3-acetylbenzene)sulfonyl]phenyl}methyl)furo[2,3-c]pyridine-2-carboxamide] showed an IC50 (NAMPT; NAMPT enzymatic reaction) of 17.6 nM and an IC50 (A2780 cells; SRB) of 8 nM.

For O=C(NCc1ccc(S(=O)(=O)c2ccccc2)cc1)c1ccc2ncccc2c1 [N-{[4-(benzenesulfonyl)phenyl]methyl}quinoline-6-carboxamide], the IC50 (NAMPT; NAMPT enzymatic assay) was 108 nM and the IC50 (A2780 cells; SRB) was > 10000 nM.

COc1cc(OC)cc(S(=O)(=O)c2ccc(CNC(=O)c3cc4cnccc4[nH]3)cc2)c1 gave an IC50 (NAMPT; NAMPT enzymatic reaction) of 4.4 nM and an IC50 (A2780 cells; SRB) of 1.5 nM.

For O=C(NCc1ccc(S(=O)(=O)c2ccc(C(F)(F)F)c(F)c2)cc1)c1cc2cnccc2[nH]1 [N-[(4-{[3-fluoro-4-(trifluoromethyl)benzene]sulfonyl}phenyl)methyl]-1H-pyrrolo[3,2-c]pyridine-2-carboxamide], the IC50 (NAMPT; NAMPT enzymatic assay) was 10.3 nM and the IC50 (A2780 cells; SRB) was 13 nM.

CCCOc1cccc(F)c1S(=O)(=O)c1ccc(CNC(=O)c2cc3ccncc3s2)cc1 showed an IC50 (NAMPT; NAMPT enzymatic reaction) of 11.5 nM and an IC50 (A2780 cells; SRB) of 29.3 nM.

For O=C(NCc1ccc(S(=O)(=O)c2c(Cl)cccc2Cl)cc1)c1cnc2nccn2c1, the IC50 (NAMPT; NAMPT enzymatic reaction) was 13.4 nM and the IC50 (A2780 cells; SRB) was 100 to 1000 nM.

Cc1ccc(C)c(S(=O)(=O)c2ccc(CNC(=O)c3cnc4[nH]ncc4c3)cc2)c1 [N-({4-[(2,5-dimethylbenzene)sulfonyl]phenyl}methyl)-1H-pyrazolo[3,4-b]pyridine-5-carboxamide] gave an IC50 (NAMPT; NAMPT enzymatic reaction) of 20.9 nM and an IC50 (A2780 cells; SRB) of 17.2 nM.

Work on CCCCOc1ccc(S(=O)(=O)c2ccc(CNC(=O)c3cc4ccncc4s3)cc2)cc1 yielded an IC50 (NAMPT; NAMPT enzymatic reaction) of 3.6 nM and an IC50 (A2780 cells; SRB) of 10.3 nM.

Compound Cc1cncc(S(=O)(=O)c2ccc(CNC(=O)c3cnc4[nH]ncc4c3)cc2)n1 [N-{[4-(6-methylpyrazine-2-sulfonyl)phenyl]methyl}-1H-pyrazolo[3,4-b]pyridine-5-carboxamide] has an IC50 (NAMPT; NAMPT enzymatic assay) of 34.9 nM and an IC50 (A2780 cells; SRB) of 31.2 nM.

With Cc1cncc(S(=O)(=O)c2ccc(CNC(=O)c3cc4ccncc4s3)cc2)c1 [N-{[4-(5-methylpyridine-3-sulfonyl)phenyl]methyl}thieno[2,3-c]pyridine-2-carboxamide] the IC50 (NAMPT; NAMPT enzymatic assay) was 6 nM and the IC50 (A2780 cells; SRB) was 2.5 nM.

Compound Cc1ccc(C)c(S(=O)(=O)c2ccc(CNC(=O)c3cc4cnccc4[nH]3)cc2)c1 [N-({4-[(2,5-dimethylbenzene)sulfonyl]phenyl}methyl)-1H-pyrrolo[3,2-c]pyridine-2-carboxamide] has an IC50 (NAMPT; NAMPT enzymatic reaction) of 11 nM and an IC50 (A2780 cells; SRB assay) of 14 nM.

CC(C)c1cccc(S(=O)(=O)c2ccc(CNC(=O)c3cc4cnccc4[nH]3)cc2)c1 [N-[(4-{[3-(propan-2-yl)benzene]sulfonyl}phenyl)methyl]-1H-pyrrolo[3,2-c]pyridine-2-carboxamide] was tested, and the IC50 (NAMPT; NAMPT enzymatic reaction) was 6 nM and the IC50 (A2780 cells; SRB assay) was 4 nM.

In the case of O=C(NCc1ccc(S(=O)(=O)Nc2cccc3c2CCCC3)cc1)c1cc2cnccc2[nH]1 [N-({4-[(5,6,7,8-tetrahydronaphthalen-1-yl)sulfamoyl]phenyl}methyl)-1H-pyrrolo[3,2-c]pyridine-2-carboxamide], the IC50 (NAMPT; NAMPT enzymatic reaction) is reported as > 30000 nM and the IC50 (A2780 cells; SRB assay) is reported as > 30000 nM.

Work on COc1ccc(S(=O)(=O)c2ccc(CNC(=O)c3cnc4nccn4c3)cc2)c(Cl)c1 yielded an IC50 (NAMPT; NAMPT enzymatic reaction) of 6.5 nM and an IC50 (A2780 cells; SRB) of 66.9 nM.

Cc1nc(S(=O)(=O)c2ccc(CNC(=O)c3cnc4nccn4c3)cc2)cs1 [N-{[4-(2-methyl-1,3-thiazole-4-sulfonyl)phenyl]methyl}imidazo[1,2-a]pyrimidine-6-carboxamide] showed an IC50 (NAMPT; NAMPT enzymatic assay) of 28.6 nM and an IC50 (A2780 cells; SRB) of 1000 to 10000 nM.

In the case of O=C(NCc1ccc(S(=O)(=O)c2cc(F)cc(C(F)(F)F)c2)cc1)c1cnc2nccn2c1, the IC50 (NAMPT; NAMPT enzymatic assay) is reported as 5.9 nM and the IC50 (A2780 cells; SRB) is reported as 1.1 nM.

With O=C(NCc1ccc(S(=O)(=O)c2ccc(OC(F)(F)F)c(F)c2)cc1)c1cc2ccncc2s1 the IC50 (NAMPT; NAMPT enzymatic assay) was 11.5 nM and the IC50 (A2780 cells; SRB) was 11.5 nM.

O=C(NCc1ccc(S(=O)(=O)c2nccs2)cc1)c1cc2ccncc2s1 [N-{[4-(1,3-thiazole-2-sulfonyl)phenyl]methyl}thieno[2,3-c]pyridine-2-carboxamide] showed an IC50 (NAMPT; NAMPT enzymatic assay) of 14.4 nM and an IC50 (A2780 cells; SRB) of 75.1 nM.

Work on Cc1ccc(S(=O)(=O)c2ccc(CNC(=O)c3ccc4nccn4c3)cc2)c(F)c1 [N-({4-[(2-fluoro-4-methylbenzene)sulfonyl]phenyl}methyl)imidazo[1,2-a]pyridine-6-carboxamide] yielded an IC50 (NAMPT; NAMPT enzymatic reaction) of 21.4 nM and an IC50 (A2780 cells; SRB) of 24.7 nM.

Compound Cc1cc(F)cc(S(=O)(=O)c2ccc(CNC(=O)c3cnc4nccn4c3)cc2)c1 has an IC50 (NAMPT; NAMPT enzymatic reaction) of 1.5 nM and an IC50 (A2780 cells; SRB) of 5.4 nM.

For O=C(NCc1ccc(S(=O)(=O)c2cccc(Oc3ccc(F)cc3)c2)cc1)c1cc2ccncc2s1, the IC50 (NAMPT; NAMPT enzymatic assay) was 2.6 nM and the IC50 (A2780 cells; SRB) was 65.6 nM.

COc1c(Cl)ccc(S(=O)(=O)c2ccc(CNC(=O)c3ccc4nccn4c3)cc2)c1Cl gave an IC50 (NAMPT; NAMPT enzymatic reaction) of 31.1 nM and an IC50 (A2780 cells; SRB) of 13 nM.

Compound O=C(NCc1ccc(S(=O)(=O)c2cccc3c2OCO3)cc1)c1ccc2nccn2c1 [N-{[4-(2H-1,3-benzodioxole-4-sulfonyl)phenyl]methyl}imidazo[1,2-a]pyridine-6-carboxamide] has an IC50 (NAMPT; NAMPT enzymatic assay) of 7.1 nM and an IC50 (A2780 cells; SRB) of 13 nM.

CCCOc1ccc(S(=O)(=O)c2ccc(CNC(=O)c3ccc4nccn4c3)cc2)c(C)c1 showed an IC50 (NAMPT; NAMPT enzymatic reaction) of 9.2 nM and an IC50 (A2780 cells; SRB) of 13.3 nM.

Compound Cc1cc(C)c(S(=O)(=O)c2ccc(CNC(=O)c3cnc4nccn4c3)cc2)c(C)c1 has an IC50 (NAMPT; NAMPT enzymatic reaction) of 28.8 nM and an IC50 (A2780 cells; SRB) of 100 to 1000 nM.

CC(C)Oc1cc(F)ccc1S(=O)(=O)c1ccc(CNC(=O)c2ccc3nccn3c2)cc1 gave an IC50 (NAMPT; NAMPT enzymatic assay) of 22.2 nM and an IC50 (A2780 cells; SRB) of 2.1 nM.
